In this experiment the test system is sulfate reducing bacteria (SRB). As to the kind of experiment: Serum bottle test: control of H2S generation and sulfate reducing bacteria in synthetic nutrient medium. The experiment is classed as cell-based. As for the experimental part:
The test protocol was as follows: 100 mL serum bottles were filled with synthetic nutrient medium, then stoppered, capped, and autoclaved, and allowed to cool to at least 35 ° C. Using a 1 mL syringe with needle, the treatment was added at desired dosages to prepared serum bottles (triplicates of each dosage). No treatment was added for baseline controls. At least 6 baseline serum bottles were used. Using a 1 mL syringe with needle, 0.1 mL of prepared culture was added to each serum bottle. Next, a 10^10 cells/ml concentration of the sulfate reducers was prepared (using autoclaved synthetic nutrient medium) inside an anaerobic chamber. Using a 1 ml syringe with needle, 0.1 ml of the prepared sulfate reducers culture was added to each serum bottle. The bottles were then incubated at the desired temperature. The baseline dissolved sulfide levels were then measured to determine if the samples were ready for efficacy analysis. Using a 30 mL syringe with needle, 30 mL of sample was removed from each serum bottle. About 25 mL of the sample was added to a 30 mL bottle containing 0.125 mL zinc acetate solution, followed by adding 1 mL of 1N NaOH. The sulfide in the fixed sample was then measured. The remaining 5 mL of sample in the syringe was used for pH determination.

Setting [1] is: H2S generation, inhibitor concentration 1 ppm.
[2] abbreviates: H2S generation, inhibitor concentration 2.5 ppm.
[3] abbreviates: H2S generation, inhibitor concentration 5 ppm.
Where [4] appears, read: inhibitor concentration 2.5 ppm.
[5] abbreviates: inhibitor concentration 100 ppm.

Structures are written as SMILES. Several values for one entry are separate records, joined by “and”; a condition that tells them apart may be missing. Identical values can stand only once. Counter-ions that a name gives are not always drawn.

The term % Inhibition denotes the change of the read-out against control, counted positive when it falls. Read a high % Inhibition as a strong effect. With `N=C(NCCCCCCNC(=N)NC(=N)Nc1ccc(Cl)cc1)NC(=N)Nc1ccc(Cl)cc1.O=C(O)[C@H](O)[C@@H](O)[C@H](O)[C@H](O)CO.O=C(O)[C@H](O)[C@@H](O)[C@H](O)[C@H](O)CO` [Chlorhexidine digluconate], the “% Inhibition” value reads like this: under setting [1], 100%; under setting [2], 100%; under setting [3], 100%. Also, the “H2S concentration (ppm)” value stood at 0 ppm (inhibitor concentration 1 ppm), 0 ppm under setting [4] and 0 ppm (inhibitor concentration 5 ppm). The “% H2S Inhibition” value is 99% (inhibitor concentration 25 ppm); 99% (inhibitor concentration 50 ppm); 99% and 100% under setting [5].

For orientation: inhibition means the relative decrease from the control value, in per cent. A high value points to a response far below the control. As for `[H]/N=C(\N/C(=N/[H])NCCCCCCNC(=N)NC(=N)Nc1ccc(Cl)cc1)Nc1ccc(Cl)cc1` [Chlorhexidine dihydrochloride], at 1 ppm the inhibition under setting [1] was 96%. For the same compound, the “% Inhibition” value (H2S generation, inhibitor concentration 1 ppm, dihydrochloride) was 98% and 95%. The compound further gave an inhibition at 2.5 ppm under setting [2] of 100%. Also, under setting [3], 5 ppm produced 100% inhibition. For the same compound, the “H2S concentration (ppm)” value runs as follows: under setting [4], 0 ppm; (inhibitor concentration 5 ppm) 0 ppm. For the same compound, 25 ppm produced 99% inhibition (inhibitor concentration 25 ppm). This compound registered an inhibition at 50 ppm (inhibitor concentration 50 ppm) of 99%. Also, the inhibition at 100 ppm under setting [5] was 100%.

The values above are taken from patent publication US20090068059A1, “METHOD OF PREVENTING HYDROGEN SULFIDE ODOR GENERATION IN AN AQUEOUS MEDIUM” (priority 2007, published 2009).
